Our source for the EC50 values is patent publication US20240101531A1, “PYRIDINAMINE DERIVATIVES AND THEIR USE AS POTASSIUM CHANNEL MODULATORS” (Xenon Pharmaceuticals Inc., priority 2022, published 2024).

Structures can show the parent of a compound that is named as a salt.

The target of this experiment is human KV7.2/KV7.3 (Homo sapiens (Human), UniProt O43525+O43526). Description: Potassium flux assay (IPG-2 AM dye). The format is cell-based. The note with it: TREX HEK 293 or HEK 293 cells expressing human KV7.2/KV7.3; arithmetic mean values. An excerpt: This potassium flux assay employs the cell-permeable, potassium-sensitive dye, IPG-2 AM, to quantify potassium ion flux through potassium channels.
In general, TREX HEK 293 or HEK 293 cells were stably transfected with either an inducible or non-inducible expression vector containing the full-length cDNA coding for the desired human KV7.2/KV7.3 or in combination with another full-length cDNA for a second desired human KV7 potassium channel. Potassium channel-expressing cell lines were induced with tetracycline (1 μg/mL), if required, and plated on 384-well poly-D-lysine (PDL)-coated plates in culture media (DMEM, containing 10% FBS and 1% L-glutamine). After overnight incubation, culture media was removed and cells were loaded with 5 μM IPG-2 AM dye for 1 hour in Assay buffer (140 mM NaCl, 20 mM RbCl, 2 mM CaCl2, 1 mM MgCl2, 10 mM HEPES (4-(2-hydroxyethyl)-1-piperazineethanesulfonic acid buffer), 10 mM glucose, adjusted with Tris to pH 7.4). Excess dye was removed, and cells incubated at room temperature for 20 minutes with or without test compound. A Hamamatsu FDSS μCell was used to perform a 1:1 addition of K challenge buffer (150 mM NaCl, 10 mM HEPES, 2 mM CaCl2, 10 mM KCl, 1 mM MgCl2, 10 mM glucose, adjusted with Tris to pH 7.4 for human KV7.2/KV7.3, and simultaneously read plates at excitation wavelength of 530 nm and emission wavelength of 558 nm. Non-potassium channel-mediated potassium influx was determined in the presence of DMSO, and maximal influx was determined in the presence of a known KV7.x channel modulator. For each test compound, a concentration response curve was generated with 16 concentrations points, 2-fold serial dilution starting at 30 μM and an EC50 value was determined.

As to `O[C@@H]1COC[C@@H]1Oc1ccc2c(Nc3ccc(Cl)nc3)nccc2c1` (racemic) [Example 79, rac-(3R,4S)-4-((1-((6-chloropyridin-3-yl)amino)isoquinolin-6-yl)oxy)tetrahydrofuran-3-ol], the EC50 is 1 to 10 µM.
To `O[C@@H]1CCC[C@H](Oc2ccc3c(Nc4ccc(Cl)nc4)nccc3c2)C1` (racemic) [Example 95, rac-(1R,3S)-3-((1-((6-chloropyridin-3-yl)amino)isoquinolin-6-yl)oxy)cyclohexan-1-ol] belongs less than 1 µM; to `O[C@H]1CC[C@@H](Oc2ccc3c(Nc4ccc(Cl)nc4)nccc3c2)C1` (racemic) [Example 102, rac-(1S,3R)-3-((1-((6-chloropyridin-3-yl)amino)isoquinolin-6-yl)oxy)cyclopentan-1-ol], less than 1 µM.
As for `O[C@@H]1CC[C@@H](Oc2ccc3c(Nc4ccc(Cl)nc4)nccc3c2)C1` (racemic) [Example 103, rac-(1R,3R)-3-((1-((6-chloropyridin-3-yl)amino)isoquinolin-6-yl)oxy)cyclopentan-1-ol], the figure is less than 1 µM.
Turning to `N#CC1(COc2ccc3c(Nc4ccc(Cl)nc4)nccc3c2)CCOC1` (racemic) [Example 124, 3-(((1-((6-chloropyridin-3-yl)amino)isoquinolin-6-yl)oxy)methyl)tetrahydrofuran-3-carbonitrile], the EC50 is less than 1 µM.
For the molecule `O[C@]1(C(F)(F)F)CCC[C@H](Oc2ccc3c(Nc4cnc(Cl)nc4)nccc3c2)C1` (racemic) [Example 145, rac-(1R,3S)-3-((1-((2-chloropyrimidin-5-yl)amino)isoquinolin-6-yl)oxy)-1-(trifluoromethyl)cyclohexan-1-ol], the EC50 is less than 1 µM.
To `CC(Oc1ccc2c(Nc3ccc(Cl)nc3)nccc2c1)c1cnn(C)c1` (racemic) [Example 170, N-(6-chloropyridin-3-yl)-6-(1-(1-methyl-1H-pyrazol-4-yl)ethoxy)isoquinolin-1-amine] belongs less than 1 µM; to `Cc1nn(C)cc1C(C)Oc1ccc2c(Nc3ccc(Cl)nc3)nccc2c1` (racemic) [Example 173, N-(6-chloropyridin-3-yl)-6-(1-(1,3-dimethyl-1H-pyrazol-4-yl)ethoxy)isoquinolin-1-amine], 1 to 10 µM.
As for `CO[C@@H]1CCC[C@H](Oc2ccc3c(Nc4cnc(Cl)nc4)nccc3c2)C1` (racemic) [Example 360, cis-N-(2-chloropyrimidin-5-yl)-6-(((1S,3R)-3-methoxycyclohexyl)oxy)isoquinolin-1-amine], the figure is less than 1 µM; as for `O[C@@H]1CCCC[C@@H]1Oc1ccc2c(Nc3ccc(Cl)nc3)nccc2c1` (relative stereo) [Example 142, cis-2-((1-((6-chloropyridin-3-yl)amino)isoquinolin-6-yl)oxy)cyclohexan-1-ol], less than 1 µM; as for `O[C@@H]1CCCC[C@H]1Oc1ccc2c(Nc3ccc(Cl)nc3)nccc2c1` (relative stereo) [Example 143, trans-2-((1-((6-chloropyridin-3-yl)amino)isoquinolin-6-yl)oxy)cyclohexan-1-ol], less than 1 µM.
For the molecule `O[C@@H]1CCC[C@H](Oc2ccc3c(Nc4cnc(Cl)nc4)nccc3c2)C1` (relative stereo) [Example 348, cis-3-((1-((2-chloropyrimidin-5-yl)amino)isoquinolin-6-yl)oxy)cyclohexan-1-ol], the EC50 was less than 1 µM.
Regarding `O[C@@H]1CCC[C@@H](Oc2ccc3c(Nc4ccc(Cl)nc4)nccc3c2)C1` (relative stereo) [Example 354, trans-3-((1-((6-chloropyridin-3-yl)amino)isoquinolin-6-yl)oxy)cyclohexan-1-ol], the EC50 was less than 1 µM.
In the case of `N=[S@]1(=O)CCC[C@@H](COc2ccc3c(Nc4cnc(Cl)nc4)nccc3c2)C1` (relative stereo) [Example 366, cis-3-(((1-((2-chloropyrimidin-5-yl)amino)isoquinolin-6-yl)oxy)methyl)-1-iminohexahydro-1λ^6-thiopyran 1-oxide], the EC50 was 1 to 10 µM.
For the molecule `N=[S@@]1(=O)CCC[C@@H](COc2ccc3c(Nc4cnc(Cl)nc4)nccc3c2)C1` (relative stereo) [Example 367, trans-3-(((1-((2-chloropyrimidin-5-yl)amino)isoquinolin-6-yl)oxy)methyl)-1-iminohexahydro-1λ^6-thiopyran 1-oxide], the EC50 is less than 1 µM.
For `N#CC1(COc2ccc3c(Nc4ccc(Cl)nc4)nccc3c2)CCOC1` (stereo in doubt) [Example 125, (R)-3-(((1-((6-chloropyridin-3-yl)amino)isoquinolin-6-yl)oxy)methyl)tetrahydrofuran-3-carbonitrile], the EC50 is less than 1 µM.
Turning to `N#CC1(COc2ccc3c(Nc4ccc(Cl)nc4)nccc3c2)CCOC1` (stereo in doubt) [Example 126, (S)-3-(((1-((6-chloropyridin-3-yl)amino)isoquinolin-6-yl)oxy)methyl)tetrahydrofuran-3-carbonitrile], the EC50 is less than 1 µM.
Turning to `CS(=O)(=Nc1ccc2c(Nc3ccc(Cl)nc3)nccc2c1)C1CC1` (stereo in doubt) [Example 273, (R)-((1-((6-chloropyridin-3-yl)amino)isoquinolin-6-yl)imino)(cyclopropyl)(methyl)-λ^6-sulfanone], the EC50 lay in the range of 1 to 10 µM.
Regarding `CS(=O)(=Nc1ccc2c(Nc3ccc(Cl)nc3)nccc2c1)C1CC1` (stereo in doubt) [Example 274, (S)-((1-((6-chloropyridin-3-yl)amino)isoquinolin-6-yl)imino)(cyclopropyl)(methyl)-λ^6-sulfanone], the EC50 was less than 1 µM.
As to `CS(=O)(=Nc1ccc2c(Nc3ccc(Cl)nc3)nccc2c1)C1COC1` (stereo in doubt) [Example 276, (S)-((1-((6-chloropyridin-3-yl)amino)isoquinolin-6-yl)imino)(methyl)(oxetan-3-yl)-λ^6-sulfanone)], the EC50 is 1 to 10 µM.
As for `CS(=O)(=Nc1ccc2c(Nc3ccc(Cl)nc3)nccc2c1)C1COC1` (stereo in doubt) [Example 277, (R)-((1-((6-chloropyridin-3-yl)amino)isoquinolin-6-yl)imino)(methyl)(oxetan-3-yl)-λ^6-sulfanone)], the EC50 lay within 1 to 10 µM.
Turning to `FC1(COc2ccc3c(Nc4ccc(Cl)nc4)nccc3c2)CCOC1` (stereo in doubt) [Example 364, (R)—N-(6-chloropyridin-3-yl)-6-((3-fluorotetrahydrofuran-3-yl)methoxy)isoquinolin-1-amine], the 50% effective concentration (EC50) was less than 1 µM.
As for `FC1(COc2ccc3c(Nc4ccc(Cl)nc4)nccc3c2)CCOC1` (stereo in doubt) [Example 365, (S)—N-(6-chloropyridin-3-yl)-6-((3-fluorotetrahydrofuran-3-yl)methoxy)isoquinolin-1-amine], the EC50 is less than 1 µM.
As to `CC(C)Oc1ccc2c(Nc3ccc(Cl)nc3)nccc2c1` [Example 1, N-(6-chloropyridin-3-yl)-6-isopropoxyisoquinolin-1-amine], the EC50 fell in the range of 1 to 10 µM.
Regarding `Clc1ccc(Nc2nccc3cc(OCC4CC4)ccc23)cn1` [Example 2, N-(6-chloropyridin-3-yl)-6-(cyclopropylmethoxy)isoquinolin-1-amine], the EC50 is less than 1 µM.
Turning to `CCCOc1ccc2c(Nc3ccc(Cl)nc3)nccc2c1` [Example 3, N-(6-chloropyridin-3-yl)-6-propoxyisoquinolin-1-amine], the EC50 is 1 to 10 µM.
To `COCCOc1ccc2c(Nc3ccc(Cl)nc3)nccc2c1` [Example 4, N-(6-chloropyridin-3-yl)-6-(2-methoxyethoxy)isoquinolin-1-amine] belongs 1 to 10 µM.
To `Clc1ccc(Nc2nccc3cc(OCc4ccccn4)ccc23)cn1` [Example 5, N-(6-chloropyridin-3-yl)-6-(pyridin-2-ylmethoxy)isoquinolin-1-amine] belongs 1 to 10 µM.
Take `CC1(C)CCC(COc2ccc3c(Nc4ccc(Cl)nc4)nccc3c2)O1` (stereo not shown) [Example 6, N-(6-chloropyridin-3-yl)-6-((5,5-dimethyltetrahydrofuran-2-yl)methoxy)isoquinolin-1-amine]: the EC50 was in the range of 1 to 10 µM.
`FC(F)Oc1ccc2c(Nc3ccc(Cl)nc3)nccc2c1` [Example 7, N-(6-chloropyridin-3-yl)-6-(difluoromethoxy)isoquinolin-1-amine]: the EC50 lay within 1 to 10 µM.
With `Clc1ccc(Nc2nccc3cc(Oc4ccccc4)ccc23)cn1` [Example 8, N-(6-chloropyridin-3-yl)-6-phenoxyisoquinolin-1-amine], the EC50 lay in the range of 1 to 10 µM.
With `Clc1ncc(Nc2nccc3cc(OCC4CC4)ccc23)cn1` [Example 9, N-(2-chloropyrimidin-5-yl)-6-(cyclopropylmethoxy)isoquinolin-1-amine], the concentration giving a half-maximal response (EC50) was less than 1 µM.
Turning to `COC(=O)c1ccc2c(Nc3ccc(Cl)nc3)nccc2c1` [Example 10, methyl 1-((6-chloropyridin-3-yl)amino)isoquinoline-6-carboxylate], the EC50 was 10 to 30 µM.
As for `Clc1ccc(Nc2nccc3sccc23)cn1` [Example 11, N-(6-chloropyridin-3-yl)thieno[3,2-c]pyridin-4-amine formate], the figure is 1 to 10 µM.
